# System: subjects with moderately to severely active RA who have an inadequate response to methotrexate (MTX)
# Assay: Study 1 (add-on to MTX) - Aspartate Aminotransferase (AST) levels
# Format: in vivo, human
# Procedure: Double-blind, placebo-controlled add on study in subjects with moderately to severely active RA who have an inadequate response to methotrexate (MTX) (oral or parenteral).
# 595 subjects randomized to one of 6 dose regimens of Compound 1 (dosed as [Compound 1:HCl:3H2O]) (3 dose levels administered either once or twice daily) or placebo on top of each subject's stable dose of MTX.
# Compound 1 (dosed as [Compound 1:HCl:3H2O]) is dosed for twelve weeks once daily (q.d.) (50 mg, 100 mg or 200 mg) or twice daily (b.i.d.) (25 mg, 50 mg or 100 mg); or placebo.
# At Week 12, the subjects on placebo who have not achieved 20% improvement in swollen joint count (SJC66) and tender joint count (TJC68) are re-randomized automatically to receive Compound 1 (dosed as a [Compound 1:HCl:3H2O]) either at 100 mg q.d. or 50 mg b.i.d. doses in a blinded fashion; subjects on 50 mg q.d. who have not achieved 20% improvement in SJC66 and TJC68 will be assigned to 100 mg q.d. and subjects on 25 mg b.i.d. that have not achieved a 20% improvement in SJC66 and TJC68 will be assigned to 50 mg b.i.d. Subjects who switch treatment at week 12 are handled as if they discontinued at week 12 for the purpose of statistical analysis, whereas subjects in the other groups will maintain their randomized treatment until Week 24.
# AST levels determination is available at Quest Diagnostics, Clinical Trials, Quest House, 125-135 Staines Road, Hounslow, Middlesex, TW3 3JB, United Kingdom under Catalogue n#84450. For Study 3, the data are obtained at BARC Europe, 3B,Industrie Park, Zwijnaarde, B-9052 Ghent, Belgium.
# AST catalyzes the transamination of aspartate and 2-oxoglutarate, forming L-glutamate and oxalacetate. The oxalacetate is reduced to L-malate by malate dehydrogenase, whilst NADH is converted to NAD+, measured spectrophotometrically. Guidelines for the AST value have been issued by the association for Clinical Biochemistry and Laboratory Medicine, 130-132 Tooley Street LONDON SE1 2TU, united Kingdom, wherein the AST value should be below 34 U/l in Female and below 45 U/L in male. As disclosed in the respective study protocols for Study 1 or 2, at week 12, depending on the outcome of their treatment, the subjects may be continued in their initial treatment course, or reassigned to another treatment group in a randomized blinded fashion until week 24. Therefore, the number of subjects (N) for the period of either 12 weeks, or 24 weeks is provided to reflect this redistribution at week 12.
# [1] = 12 weeks results, 50 mg q.d., week 1
# [2] = 12 weeks results, 50 mg q.d., week 2
# [3] = 12 weeks results, 50 mg q.d., week 4
# [4] = 12 weeks results, 50 mg q.d., week 8
# [5] = 12 weeks results, 50 mg q.d., week 12
# [6] = 12 weeks results, 100 mg q.d., week 1
# [7] = 12 weeks results, 100 mg q.d., week 2
# [8] = 12 weeks results, 100 mg q.d., week 4
# [9] = 12 weeks results, 100 mg q.d., week 8
# [10] = 12 weeks results, 100 mg q.d., week 12
# [11] = 12 weeks results, 200 mg q.d., week 1
# [12] = 12 weeks results, 200 mg q.d., week 2
# [13] = 12 weeks results, 200 mg q.d., week 4
# [14] = 12 weeks results, 200 mg q.d., week 8
# [15] = 12 weeks results, 200 mg q.d., week 12
# [16] = 12 weeks results, 2 × 25 mg b.i.d., week 1
# [17] = 12 weeks results, 2 × 25 mg b.i.d., week 2
# [18] = 12 weeks results, 2 × 25 mg b.i.d., week 4
# [19] = 12 weeks results, 2 × 25 mg b.i.d., week 8
# [20] = 12 weeks results, 2 × 25 mg b.i.d., week 12
# [21] = 12 weeks results, 2 × 50 mg b.i.d., week 1
# [22] = 12 weeks results, 2 × 50 mg b.i.d., week 2
# [23] = 12 weeks results, 2 × 50 mg b.i.d., week 4
# [24] = 12 weeks results, 2 × 50 mg b.i.d., week 8
# [25] = 12 weeks results, 2 × 50 mg b.i.d., week 12
# [26] = 12 weeks results, 2 × 100 mg b.i.d., week 1
# [27] = 12 weeks results, 2 × 100 mg b.i.d., week 2
# [28] = 12 weeks results, 2 × 100 mg b.i.d., week 4
# [29] = 12 weeks results, 2 × 100 mg b.i.d., week 8
# [30] = 12 weeks results, 2 × 100 mg b.i.d., week 12
# [31] = 24 weeks results, continued 25 mg b.i.d., week 1
# [32] = 24 weeks results, continued 25 mg b.i.d., week 2
# [33] = 24 weeks results, continued 25 mg b.i.d., week 4
# [34] = 24 weeks results, continued 25 mg b.i.d., week 8
# [35] = 24 weeks results, continued 25 mg b.i.d., week 12
# [36] = 24 weeks results, continued 25 mg b.i.d., week 16
# [37] = 24 weeks results, continued 25 mg b.i.d., week 20
# [38] = 24 weeks results, continued 25 mg b.i.d., week 24
# [39] = 24 weeks results, continued 50 mg b.i.d., week 1
# [40] = 24 weeks results, continued 50 mg b.i.d., week 2
# [41] = 24 weeks results, continued 50 mg b.i.d., week 4
# [42] = 24 weeks results, continued 50 mg b.i.d., week 8
# [43] = 24 weeks results, continued 50 mg b.i.d., week 12
# [44] = 24 weeks results, continued 50 mg b.i.d., week 16
# [45] = 24 weeks results, continued 50 mg b.i.d., week 20
# [46] = 24 weeks results, continued 50 mg b.i.d., week 24
# [47] = 24 weeks results, continued 50 mg q.d., week 1
# [48] = 24 weeks results, continued 50 mg q.d., week 2
# [49] = 24 weeks results, continued 50 mg q.d., week 4
# [50] = 24 weeks results, continued 50 mg q.d., week 8
compound,measurement,setting,value
"O=C(Nc1nc2cccc(-c3ccc(CN4CCS(=O)(=O)CC4)cc3)n2n1)C1CC1 [Compound 1, cyclopropanecarboxylic acid {5-[4-(1,1-dioxo-thiomorpholin-4-ylmethyl)-phenyl]-[1,2,4]triazolo[1,5-a]pyridin-2-yl}-amide]",Study 1 - AST Mean CFB,[1],1 IU/L
same,Study 1 - AST Mean percentage CFB,[1],7%
same,Study 1 - AST Mean CFB,[2],0 IU/L
same,Study 1 - AST Mean percentage CFB,[2],5%
same,Study 1 - AST Mean CFB,[3],0 IU/L
same,Study 1 - AST Mean percentage CFB,[3],5%
same,Study 1 - AST Mean CFB,[4],0 IU/L
same,Study 1 - AST Mean percentage CFB,[4],7%
same,Study 1 - AST Mean CFB,[5],1 IU/L
same,Study 1 - AST Mean percentage CFB,[5],10%
same,Study 1 - AST Mean CFB,[6],3 IU/L
same,Study 1 - AST Mean percentage CFB,[6],14%
same,Study 1 - AST Mean CFB,[7],1 IU/L
same,Study 1 - AST Mean percentage CFB,[7],9%
same,Study 1 - AST Mean CFB,[8],2 IU/L
same,Study 1 - AST Mean percentage CFB,[8],11%
same,Study 1 - AST Mean CFB,[9],3 IU/L
same,Study 1 - AST Mean percentage CFB,[9],17%
same,Study 1 - AST Mean CFB,[10],2 IU/L
same,Study 1 - AST Mean percentage CFB,[10],16%
same,Study 1 - AST Mean CFB,[11],3 IU/L
same,Study 1 - AST Mean percentage CFB,[11],16%
same,Study 1 - AST Mean CFB,[12],2 IU/L
same,Study 1 - AST Mean percentage CFB,[12],13%
same,Study 1 - AST Mean CFB,[13],3 IU/L
same,Study 1 - AST Mean percentage CFB,[13],19%
same,Study 1 - AST Mean CFB,[14],5 IU/L
same,Study 1 - AST Mean percentage CFB,[14],27%
same,Study 1 - AST Mean CFB,[15],5 IU/L
same,Study 1 - AST Mean percentage CFB,[15],29%
same,Study 1 - AST Mean CFB,[16],0 IU/L
same,Study 1 - AST Mean percentage CFB,[16],3%
same,Study 1 - AST Mean CFB,[17],0 IU/L
same,Study 1 - AST Mean percentage CFB,[17],6%
same,Study 1 - AST Mean CFB,[18],0 IU/L
same,Study 1 - AST Mean percentage CFB,[18],6%
same,Study 1 - AST Mean CFB,[19],0 IU/L
same,Study 1 - AST Mean percentage CFB,[19],10%
same,Study 1 - AST Mean CFB,[20],2 IU/L
same,Study 1 - AST Mean percentage CFB,[20],14%
same,Study 1 - AST Mean CFB,[21],1 IU/L
same,Study 1 - AST Mean percentage CFB,[21],6%
same,Study 1 - AST Mean CFB,[22],0 IU/L
same,Study 1 - AST Mean percentage CFB,[22],6%
same,Study 1 - AST Mean CFB,[23],2 IU/L
same,Study 1 - AST Mean percentage CFB,[23],14%
same,Study 1 - AST Mean CFB,[24],2 IU/L
same,Study 1 - AST Mean percentage CFB,[24],14%
same,Study 1 - AST Mean CFB,[25],2 IU/L
same,Study 1 - AST Mean percentage CFB,[25],17%
same,Study 1 - AST Mean CFB,[26],1 IU/L
same,Study 1 - AST Mean percentage CFB,[26],10%
same,Study 1 - AST Mean CFB,[27],2 IU/L
same,Study 1 - AST Mean percentage CFB,[27],14%
same,Study 1 - AST Mean CFB,[28],3 IU/L
same,Study 1 - AST Mean percentage CFB,[28],19%
same,Study 1 - AST Mean CFB,[29],2 IU/L
same,Study 1 - AST Mean percentage CFB,[29],17%
same,Study 1 - AST Mean CFB,[30],3 IU/L
same,Study 1 - AST Mean percentage CFB,[30],20%
same,Study 1 - AST Mean CFB,[31],0.7 IU/L
same,Study 1 - AST Mean percentage CFB,[31],6.7%
same,Study 1 - AST Mean CFB,[32],0.7 IU/L
same,Study 1 - AST Mean percentage CFB,[32],7.1%
same,Study 1 - AST Mean CFB,[33],1.0 IU/L
same,Study 1 - AST Mean percentage CFB,[33],8.6%
same,Study 1 - AST Mean CFB,[34],1.6 IU/L
same,Study 1 - AST Mean percentage CFB,[34],14.0%
same,Study 1 - AST Mean CFB,[35],2.2 IU/L
same,Study 1 - AST Mean percentage CFB,[35],16.4%
same,Study 1 - AST Mean CFB,[36],1.4 IU/L
same,Study 1 - AST Mean percentage CFB,[36],12.6%
same,Study 1 - AST Mean CFB,[37],1.1 IU/L
same,Study 1 - AST Mean percentage CFB,[37],10.8%
same,Study 1 - AST Mean CFB,[38],1.7 IU/L
same,Study 1 - AST Mean percentage CFB,[38],14.0%
same,Study 1 - AST Mean CFB,[39],0.5 IU/L
same,Study 1 - AST Mean percentage CFB,[39],5.7%
same,Study 1 - AST Mean CFB,[40],0.4 IU/L
same,Study 1 - AST Mean percentage CFB,[40],5.5%
same,Study 1 - AST Mean CFB,[41],1.8 IU/L
same,Study 1 - AST Mean percentage CFB,[41],14.4%
same,Study 1 - AST Mean CFB,[42],1.7 IU/L
same,Study 1 - AST Mean percentage CFB,[42],14.0%
same,Study 1 - AST Mean CFB,[43],2.4 IU/L
same,Study 1 - AST Mean percentage CFB,[43],17.1%
same,Study 1 - AST Mean CFB,[44],1.9 IU/L
same,Study 1 - AST Mean percentage CFB,[44],13.7%
same,Study 1 - AST Mean CFB,[45],3.4 IU/L
same,Study 1 - AST Mean percentage CFB,[45],20.7%
same,Study 1 - AST Mean CFB,[46],1.5 IU/L
same,Study 1 - AST Mean percentage CFB,[46],11.1%
same,Study 1 - AST Mean CFB,[47],0.8 IU/L
same,Study 1 - AST Mean percentage CFB,[47],7.5%
same,Study 1 - AST Mean CFB,[48],−0.2 IU/L
same,Study 1 - AST Mean percentage CFB,[48],5.7%
same,Study 1 - AST Mean CFB,[49],−0.4 IU/L
same,Study 1 - AST Mean percentage CFB,[49],5.2%
same,Study 1 - AST Mean CFB,[50],0.4 IU/L
same,Study 1 - AST Mean percentage CFB,[50],9.0%

# — patent publication US20180200257A1, “METHODS FOR THE TREATMENT OF INFLAMMATORY DISORDERS” (Galapagos NV, priority 2015, published 2018)
